Laboratory results published in US12180207B2 (ARRAY BIOPHARMA INC., priority 2018, dated 2024).
pIC50: −log10 of the molar value.

Legend:
[1] = molecular target: phosphorylated FGFR3 (SEQ ID NO: 5, amino acids 449 to 759) (Homo sapiens (Human), UniProt P22607); assay: FGFR enzyme binding assay (HTRF tracer displacement), FGFR3; conditions: 5 nM phosphorylated FGFR3, average of multiple determinations if made
In short: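 Kinase and tracer were incubated with compound for 60 minutes at 22° C. Tracer displacement was then measured by HTRF, and results were expressed as POC with 1 μM control inhibitor defining full displacement.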

[2] = molecular target: recombinant human FGFR3 (amino acids R397-T806) (Homo sapiens (Human), UniProt P22607); assay: FGFR3 enzyme activity assay (LanthaScreen TR-FRET); assay type: biochemical; conditions: 25 μM ATP, 10 min incubation at 22° C., average of multiple determinations if made, read-out: FGFR3 Enz FRET IC50
recombinant human FGFR3 (amino acids R397-T806), sequence (P22607 397-806): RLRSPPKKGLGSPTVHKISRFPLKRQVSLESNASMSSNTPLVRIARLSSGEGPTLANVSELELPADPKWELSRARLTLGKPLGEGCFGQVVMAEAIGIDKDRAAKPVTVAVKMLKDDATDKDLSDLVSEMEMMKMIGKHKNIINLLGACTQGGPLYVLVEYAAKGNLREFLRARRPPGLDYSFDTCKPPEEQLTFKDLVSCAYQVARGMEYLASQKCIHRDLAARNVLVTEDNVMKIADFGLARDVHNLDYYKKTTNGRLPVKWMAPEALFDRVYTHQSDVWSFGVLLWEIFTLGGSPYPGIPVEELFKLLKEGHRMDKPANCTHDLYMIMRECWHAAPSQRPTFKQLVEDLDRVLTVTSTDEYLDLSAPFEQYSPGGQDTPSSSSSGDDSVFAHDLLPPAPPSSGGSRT
In short: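 GST-HIS6-tagged human FGFR3 (R397-T806) was reacted with 100 nM Alexa Fluor 647-Poly-GT substrate and 25 μM ATP plus compound in HEPES/MgCl2/Triton buffer, pH 7.5, 2% DMSO, for 10 min at 22 °C.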

[3] = molecular target: FGFR1 (SEQ ID NO: 1, amino acids 458-765) (Homo sapiens (Human), UniProt P11362); assay: LC/MS FGFR1 kobs assay (covalent protein modification); assay type: binding; conditions: 500 nM FGFR1, 3 μM compound
FGFR1 (SEQ ID NO: 1, amino acids 458-765), sequence (P11362 458-765): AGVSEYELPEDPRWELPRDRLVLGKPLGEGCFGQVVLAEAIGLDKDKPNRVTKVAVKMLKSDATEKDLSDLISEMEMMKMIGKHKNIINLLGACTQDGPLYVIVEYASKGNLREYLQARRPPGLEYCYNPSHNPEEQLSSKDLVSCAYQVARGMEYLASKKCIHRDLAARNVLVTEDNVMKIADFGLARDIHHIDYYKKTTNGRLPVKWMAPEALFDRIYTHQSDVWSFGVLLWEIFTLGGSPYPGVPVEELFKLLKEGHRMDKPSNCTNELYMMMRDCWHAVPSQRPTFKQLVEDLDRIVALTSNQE
In short: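 Covalent labeling of FGFR1 kinase domain (aa 458-765) tracked over time by intact-protein LC/MS after formic acid quench. kobs derived by fitting DMSO-normalized percent unmodified FGFR1 to an exponential decay model.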

[4] = molecular target: HEK-293 cells transfected with dox-inducible human wild type FGFR3 (Homo sapiens (Human), UniProt P22607); assay: FGFR3 pERK cell assay; assay type: cell-based; conditions: HEK-293 dox-inducible FGFR3, 1 hour compound, 100 ng/ml FGF-acidic; maximum concentration 5 μM
HEK-293 cells transfected with dox-inducible human wild type FGFR3, sequence (P22607 23-806): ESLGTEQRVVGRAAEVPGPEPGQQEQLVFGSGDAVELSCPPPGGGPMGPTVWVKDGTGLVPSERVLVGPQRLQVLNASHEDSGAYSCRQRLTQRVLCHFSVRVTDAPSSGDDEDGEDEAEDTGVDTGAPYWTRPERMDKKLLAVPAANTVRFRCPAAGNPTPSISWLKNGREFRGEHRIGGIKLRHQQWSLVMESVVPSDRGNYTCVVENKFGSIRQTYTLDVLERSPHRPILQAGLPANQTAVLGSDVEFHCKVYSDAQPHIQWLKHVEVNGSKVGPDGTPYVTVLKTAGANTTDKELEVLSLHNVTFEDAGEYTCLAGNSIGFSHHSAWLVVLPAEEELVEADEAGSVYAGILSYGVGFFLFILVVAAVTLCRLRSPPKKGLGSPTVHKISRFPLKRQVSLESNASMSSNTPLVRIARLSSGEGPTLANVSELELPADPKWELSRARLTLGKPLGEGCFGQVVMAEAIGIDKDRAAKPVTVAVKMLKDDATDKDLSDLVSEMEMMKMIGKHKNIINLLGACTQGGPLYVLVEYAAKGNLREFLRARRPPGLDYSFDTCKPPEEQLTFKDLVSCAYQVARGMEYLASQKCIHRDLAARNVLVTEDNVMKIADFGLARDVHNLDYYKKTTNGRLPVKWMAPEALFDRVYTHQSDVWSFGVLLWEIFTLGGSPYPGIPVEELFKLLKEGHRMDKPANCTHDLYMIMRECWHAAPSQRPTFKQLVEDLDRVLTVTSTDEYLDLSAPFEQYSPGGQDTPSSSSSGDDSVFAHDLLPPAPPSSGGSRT
In short: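 Doxycycline-induced cells preincubated 1 h at 37 °C with compound (1:3 dilutions, top 5 μM final), then stimulated 5 min with 100 ng/ml FGF-acidic. Lysate phospho-ERK1/2 measured by MSD sandwich assay; IC50 at 50 POC from 4-parameter fit, normalised to no-compound and control-compound wells.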

phosphorylated FGFR3 (SEQ ID NO: 5, amino acids 449 to 759), sequence (P22607 449-759): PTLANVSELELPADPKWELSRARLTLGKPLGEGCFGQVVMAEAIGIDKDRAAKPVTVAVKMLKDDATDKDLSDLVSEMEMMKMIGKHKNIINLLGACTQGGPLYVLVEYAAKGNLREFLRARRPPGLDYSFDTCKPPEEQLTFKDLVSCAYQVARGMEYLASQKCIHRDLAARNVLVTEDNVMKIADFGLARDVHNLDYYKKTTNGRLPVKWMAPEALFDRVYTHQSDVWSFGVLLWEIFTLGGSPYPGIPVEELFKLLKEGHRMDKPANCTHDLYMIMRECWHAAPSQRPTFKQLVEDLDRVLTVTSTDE

pIC50 [1] | pIC50 [2] | FGFR1 Enz kobs [3] [min⁻¹] | pIC50 [4] | SMILES
7.32 | 7.00 | 0.00455 | 6.45 | CCc1c(-c2cc(OC)c3c(C#N)cnn3c2)cnn1C1CCN(C(=O)C2(F)CN(C(=O)/C=C/CN(C)C)C2)CC1 [Example 162, (E)-6-(1-(1-(1-(4-(dimethylamino)but-2-enoyl)-3-fluoroazetidine-3-carbonyl)piperidin-4-yl)-5-ethyl-1H-pyrazol-4-yl)-4-methoxypyrazolo [1,5-a]pyridine-3-carbonitrile]
7.96 | 7.77 | 0.0008 | 6.23 | C=CC(=O)N1CC(CN2CCC(n3ncc(-c4cc(OC)c5c(C#N)cnn5c4)c3C)CC2)C1(C)C (stereo not shown) [Example 151, 6-(1-(1-((1-acryloyl-2,2-dimethylazetidin-3-yl)methyl)piperidin-4-yl)-5-methyl-1H-pyrazol-4-yl)-4-methoxypyrazolo [1,5-a]pyridine-3-carbonitrile]
8.70 | 8.22 | 0.00288 | 7.89 | C=CC(=O)N1CC(S(=O)(=O)N2CCC(n3cc(-c4cc(OC)c5c(C#N)cnn5c4)cn3)CC2)C1 [Example 134, 6-(1-(1-((1-acryloylazetidin-3-yl)sulfonyl)piperidin-4-yl)-1H-pyrazol-4-yl)-4-methoxypyrazolo[1,5-a]pyridine-3-carbonitrile]
7.31 | 7.08 | 0.00576 | 6.76 | COc1cc(-c2cnc(N3CCN(C(=O)C4(F)CN(C(=O)/C=C/CN(C)C)C4)CC3)cc2C)cn2ncc(C#N)c12 [Example 169, (E)-6-(6-(4-(1-(4-(dimethylamino)but-2-enoyl)-3-fluoroazetidine-3-carbonyl)piperazin-1-yl) -4-methylpyridin-3-yl)-4-methoxypyrazolo [1,5-a]pyridine-3-carbonitrile]
8.52 | 8.05 | 0.00369 | 7.60 | C=CC(=O)N1CC(F)(C(=O)N2CCC(n3cc(-c4cc(OC)c5c(Cl)cnn5c4)cn3)CC2)C1 [Example 121, 1-(3-(4-(4-(3-chloro-4-methoxypyrazolo[1,5-a]pyridin-6-yl)-1H-pyrazol-1-yl)piperidine-1-carbonyl)-3-fluoroazetidin-1-yl)prop-2-en-1-one]
7.20 | 6.59 | 0.00369 | 6.61 | C=CC(=O)N1CC(F)(C(=O)N2CCN(c3cc(C)c(-c4cc(OC)c5c(C#N)cnn5c4)cn3)CC2)C1 [Example 114, 6-(6-(4-(1-acryloyl-3-fluoroazetidine-3-carbonyl)piperazin-1-yl)-4-methylpyridin-3-yl)-4-methoxypyrazolo[1,5-a]pyridine-3-carbonitrile]
7.35 | 6.98 | 0.00304 | 6.73 | C=CC(=O)N1CC(C(=O)N2CCN(c3ncc(-c4cc(OC)c5c(C#N)cnn5c4)cc3C)CC2)C1 [Example 113, 6-(6-(4-(1-acryloylazetidine-3-carbonyl)piperazin-1-yl)-5-methylpyridin-3-yl)-4-methoxypyrazolo[1,5-a]pyridine-3-carbonitrile]
